Results reported in paper PMC5609037, “Selective inhibition of PfA-M1, over PfA-M17, by an amino-benzosuberone derivative blocks malaria parasites development in vitro and in vivo” (Malaria Journal, 2017).

Assays:
[1] = target: T1, PfA-M1 (P. falciparum alanyl aminopeptidase, M1 family aminopeptidase) (Plasmodium falciparum, UniProt O96935); assay: Ala-pNA hydrolysis at […] nm, Ki by Dixon plots; format: biochemical
T1 construct: gene M1AAP; residues 192–1085, N-terminal hexahistidine tag, recombinant from E. coli
T1 sequence (O96935 192-1085): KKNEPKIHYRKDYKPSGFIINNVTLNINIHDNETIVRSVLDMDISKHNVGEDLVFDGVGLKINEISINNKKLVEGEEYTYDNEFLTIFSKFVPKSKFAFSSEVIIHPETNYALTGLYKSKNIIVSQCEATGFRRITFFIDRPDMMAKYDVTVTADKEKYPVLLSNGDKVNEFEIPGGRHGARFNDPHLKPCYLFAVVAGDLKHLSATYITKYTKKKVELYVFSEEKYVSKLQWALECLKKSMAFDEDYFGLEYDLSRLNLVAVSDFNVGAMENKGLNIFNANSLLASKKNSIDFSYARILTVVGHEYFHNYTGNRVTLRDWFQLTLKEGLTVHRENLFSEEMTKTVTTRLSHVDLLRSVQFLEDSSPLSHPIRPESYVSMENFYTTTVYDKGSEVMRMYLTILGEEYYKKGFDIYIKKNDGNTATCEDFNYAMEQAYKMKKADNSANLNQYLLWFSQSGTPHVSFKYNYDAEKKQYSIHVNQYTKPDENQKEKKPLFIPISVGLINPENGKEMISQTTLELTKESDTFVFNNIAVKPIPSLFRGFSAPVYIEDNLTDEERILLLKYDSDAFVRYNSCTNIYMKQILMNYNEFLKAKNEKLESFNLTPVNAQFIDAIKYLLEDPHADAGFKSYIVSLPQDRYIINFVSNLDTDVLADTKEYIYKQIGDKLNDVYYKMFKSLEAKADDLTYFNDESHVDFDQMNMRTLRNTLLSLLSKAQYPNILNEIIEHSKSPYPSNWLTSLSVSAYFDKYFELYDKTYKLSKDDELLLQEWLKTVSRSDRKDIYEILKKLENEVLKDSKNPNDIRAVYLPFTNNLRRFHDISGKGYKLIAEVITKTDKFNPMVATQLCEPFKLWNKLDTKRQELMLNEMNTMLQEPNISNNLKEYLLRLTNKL

[2] = target: T2, PfA-M17 (P. falciparum leucyl aminopeptidase) (Plasmodium falciparum, UniProt Q8IL11); assay: Leu-pNA hydrolysis at […] nm, Ki by Dixon plots; format: biochemical
T2 construct: gene LAP; residues 84–605, N-terminal hexahistidine tag, recombinant from E. coli
T2 sequence (Q8IL11 84-605): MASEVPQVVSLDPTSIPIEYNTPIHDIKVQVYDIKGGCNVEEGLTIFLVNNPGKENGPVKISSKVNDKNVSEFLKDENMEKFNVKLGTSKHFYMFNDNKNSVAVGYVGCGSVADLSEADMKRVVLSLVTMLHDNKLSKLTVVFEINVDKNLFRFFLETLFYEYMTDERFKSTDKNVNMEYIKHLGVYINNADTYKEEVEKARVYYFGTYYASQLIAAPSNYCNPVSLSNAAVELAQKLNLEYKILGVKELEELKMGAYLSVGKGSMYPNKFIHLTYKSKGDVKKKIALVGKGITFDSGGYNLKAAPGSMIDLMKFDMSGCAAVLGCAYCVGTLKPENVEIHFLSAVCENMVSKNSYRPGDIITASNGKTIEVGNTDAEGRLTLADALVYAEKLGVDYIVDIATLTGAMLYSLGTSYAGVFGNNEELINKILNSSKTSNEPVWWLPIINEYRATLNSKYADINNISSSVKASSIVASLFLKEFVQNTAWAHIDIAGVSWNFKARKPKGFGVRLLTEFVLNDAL

## CC(C)C[C@H](NC(=O)[C@@H](O)[C@H](N)Cc1ccccc1)C(=O)O [bestatin]
[1]
  Ki: 100 nM
[2]
  Ki: 400 nM
